These results are taken from paper PMC4533002 (2015).

The test system of assay [1] is F-St1A/St2 split adenosine aptamer (initial sandwich) (DNA, aptamer) ACCTGGGGGAGTA/TGCGGAGGAAGGT
The experiment in a line: fluorescence anisotropy. As to conditions: 50 mM NaCl, 10 mM MgCl2, 10 mM Tris pH 7.5, 25 °C, 10 nM F-St1A, 400 nM St2.

Assay [2] has as its system F-St1A/St2-AmpA split adenosine aptamer with primer regions (DNA, aptamer) ACCTGGGGGAGTA/CCAACCGTGAAAAGATGATGGTGCGGAGGAAGGTCTTAGGTCTATCCCGATGCC
Description: fluorescence anisotropy. As to conditions: 50 mM NaCl, 10 mM MgCl2, 10 mM Tris pH 7.5, 25 °C, 10 nM F-St1A, 400 nM St2-AmpA. Background: Fluorescence polarisation rises when a labelled molecule tumbles more slowly, as on binding a larger partner.

The subject of assay [3] is F-St1A/St2-AmpA-Rev primA duplex split adenosine aptamer (DNA, aptamer) ACCTGGGGGAGTA/CCAACCGTGAAAAGATGATGGTGCGGAGGAAGGTCTTAGGTCTATCCCGATGCC/GGCATCGGGATAGACCTAAG
The experiment in a line: fluorescence anisotropy. As to conditions: 50 mM NaCl, 10 mM MgCl2, 10 mM Tris pH 7.5, 25 °C, 10 nM F-St1A, 400 nM St2-AmpA-Rev primA duplex.

Assay [4] concerns St1-CholA/F-St2-AmpA/Rev primA (system A) (DNA, aptamer) ACCTGGGGGAGTA/CCAACCGTGAAAAGATGATGGTGCGGAGGAAGGTCTTAGGTCTATCCCGATGCC/GGCATCGGGATAGACCTAAG
Description: capillary electrophoresis with LIF (MEKC). Conditions: 50 mM NaCl, 10 mM MgCl2 (incubation); 25 mM NaCl (running buffer); Tris pH 7.5 (incubation), pH 7.8 (running), 0.5 mM Brij 35, 20 °C; 500-2000 μM adenosine.

In assay [5] the test system is St1-CholB/St2-AmpB/Rev primB (system B) (DNA, aptamer) ATACCTGGGGGAGTATATAAT/CACACAGGAAACAGCGTATGACAATTATAGCGGAGGAAGGTATCCGTAGCCCTATCTGGATTGC/GCAATCCAGATAGGGCTACGG
The experiment in a line: capillary electrophoresis isolation with real-time PCR. Conditions: 25 mM NaCl, 5 mM MgCl2; 20 mM Tris pH 7.5, 0.5 mM Brij 35, 20 °C; adenosine up to 50 μM.

For orientation: apparent Kd means the concentration giving half-maximal binding under the conditions of the assay. Regarding `Nc1ncnc2c1ncn2[C@@H]1O[C@H](CO)[C@@H](O)[C@H]1O`, the figures for the “apparent Kd” value in assay [1], in assay [2] and in assay [3] were ~ 90 μM, above 500 µM and ~ 90 μM, respectively. For the same compound, the binding result in assay [4] and in assay [5] was “yes” in each case.
